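Cells were grown in 96-well plates and exposed to each compound for 48 hours at five concentrations; endpoints were interpolated linearly between bracketing concentrations, or set to the highest concentration if not reached. GI50: concentration for 50% inhibition of growth.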 Calls of active or inactive are those of the source. Cut-off read from the data, not from the text of the source: active = GI50 up to about 1.1 µM and inactive = higher.
Assays:
Experiment in all cases: NCI anticancer screen, dose series, 48 h
OVCAR-5 = tested on: OVCAR-5
A498 = tested on: A498
SK-MEL-5 = tested on: SK-MEL-5
CAKI-1 = tested on: CAKI-1
RPMI-8226 = tested on: RPMI-8226
DU-145 = tested on: DU-145
SN12C = tested on: SN12C
HT-29 = tested on: HT-29
UO-31 = tested on: UO-31
MCF7 = tested on: MCF7
MOLT-4 = tested on: MOLT-4
TK-10 = tested on: TK-10
SR = tested on: SR
UACC-62 = tested on: UACC-62
SW-620 = tested on: SW-620
IGROV-1 = tested on: IGROV-1
UACC-257 = tested on: UACC-257
SK-OV-3 = tested on: SK-OV-3
OVCAR-4 = tested on: OVCAR-4
KM-20L2 = tested on: KM-20L2

| Compound | GI50 (OVCAR-5) | GI50 (A498) | GI50 (SK-MEL-5) | GI50 (CAKI-1) | GI50 (RPMI-8226) | GI50 (DU-145) | GI50 (SN12C) | GI50 (HT-29) | GI50 (UO-31) | GI50 (MCF7) | GI50 (MOLT-4) | GI50 (TK-10) | GI50 (SR) | GI50 (UACC-62) | GI50 (SW-620) | GI50 (IGROV-1) | GI50 (UACC-257) | GI50 (SK-OV-3) | GI50 (OVCAR-4) | GI50 (KM-20L2) |
| --- | --- | --- | --- | --- | --- | --- | --- | --- | --- | --- | --- | --- | --- | --- | --- | --- | --- | --- | --- | --- |
| CN(C)C/C=C(/c1ccc(Br)cc1)c1cccnc1 | > 100 µM (inactive) | 20.3 µM (inactive) | 19.7 µM (inactive) | 92.9 µM (inactive) | 34.7 µM (inactive) | > 100 µM (inactive) | > 100 µM (inactive) | 78.5 µM (inactive) | 42.8 µM (inactive) | 63.8 µM (inactive) | 47.9 µM (inactive) | 65.9 µM (inactive) | 34.8 µM (inactive) | 19.6 µM (inactive) | > 100 µM (inactive) | > 100 µM (inactive) | 18.2 µM (inactive) | 71.1 µM (inactive) | > 100 µM (inactive) | – |
| OCCCN=C1CCCCC1 | > 100 µM (inactive) | > 100 µM (inactive) | > 100 µM (inactive) | > 100 µM (inactive) | > 100 µM (inactive) | > 100 µM (inactive) | > 100 µM (inactive) | > 100 µM (inactive) | > 100 µM (inactive) | > 100 µM (inactive) | > 100 µM (inactive) | > 100 µM (inactive) | > 100 µM (inactive) | > 100 µM (inactive) | > 100 µM (inactive) | > 100 µM (inactive) | > 100 µM (inactive) | > 100 µM (inactive) | > 100 µM (inactive) | – |
| CC(=O)O/C=C\OC1CCCC1(c1ccccc1)c1ccccc1 (stereo not given) | 7.13 µM (inactive) | 18 µM (inactive) | 2.61 µM (inactive) | 4.5 µM (inactive) | 2.65 µM (inactive) | 3.95 µM (inactive) | 3.32 µM (inactive) | 2.91 µM (inactive) | 1.94 µM (inactive) | 2.21 µM (inactive) | 2.79 µM (inactive) | 3.48 µM (inactive) | 1.98 µM (inactive) | 5.27 µM (inactive) | 2.42 µM (inactive) | 2.24 µM (inactive) | 3.65 µM (inactive) | 14.4 µM (inactive) | 2.1 µM (inactive) | – |
| Cc1cccc2c(N)c3cccc(C(=O)NCC[N+]4(Cc5ccc([N+](=O)[O-])cc5)CCOCC4)c3nc12 | > 100 µM (inactive) | 42.2 µM (inactive) | 53.5 µM (inactive) | > 100 µM (inactive) | 26.1 µM (inactive) | 27.3 µM (inactive) | 3.99 µM (inactive) | 25.8 µM (inactive) | 48.2 µM (inactive) | 38.9 µM (inactive) | 13.5 µM (inactive) | > 79.1 µM (inactive) | 20.8 µM (inactive) | > 51.4 µM (inactive) | 44.2 µM (inactive) | 20.6 µM (inactive) | 60.3 µM (inactive) | > 100 µM (inactive) | 61.9 µM (inactive) | – |
| O=c1nc2sc3ccc4ccccc4c3n2nc1O | – | – | 43.8 µM (inactive) | – | > 10 µM (inactive) | – | 86.5 µM (inactive) | 47.9 µM (inactive) | – | – | 57.4 µM (inactive) | > 100 µM (inactive) | – | 46.7 µM (inactive) | 79.4 µM (inactive) | 67 µM (inactive) | – | > 100 µM (inactive) | 28.8 µM (inactive) | 25.3 µM (inactive) |
| Cc1cc(C)c([S@@](=O)O[C@@H]2[C@H]3OC(C)(C)O[C@H]3O[C@@H]2[C@H]2COC(C)(C)O2)c(C)c1 | 29.2 µM (inactive) | 11.8 µM (inactive) | 31.2 µM (inactive) | 2.16 µM (inactive) | 17.1 µM (inactive) | 29.1 µM (inactive) | 21 µM (inactive) | 29.7 µM (inactive) | 17.6 µM (inactive) | 16.7 µM (inactive) | 17 µM (inactive) | 25.5 µM (inactive) | 15.6 µM (inactive) | 22 µM (inactive) | 20 µM (inactive) | 4.24 µM (inactive) | 19.5 µM (inactive) | 36.6 µM (inactive) | 16.5 µM (inactive) | – |
| O=C1/C(=C/c2ccccc2Cl)COc2ccc(Br)cc21 | > 100 µM (inactive) | > 100 µM (inactive) | – | – | 2.1 µM (inactive) | – | – | > 100 µM (inactive) | 55.7 µM (inactive) | – | 18 µM (inactive) | > 100 µM (inactive) | – | – | 23.8 µM (inactive) | > 100 µM (inactive) | > 100 µM (inactive) | 27 µM (inactive) | – | > 100 µM (inactive) |
| c1ccc(COc2cccc3cccnc23)cc1 | > 100 µM (inactive) | – | 50.2 µM (inactive) | – | > 100 µM (inactive) | – | > 100 µM (inactive) | 80.9 µM (inactive) | 56.9 µM (inactive) | – | > 100 µM (inactive) | > 100 µM (inactive) | – | 95.9 µM (inactive) | > 100 µM (inactive) | 85.7 µM (inactive) | > 100 µM (inactive) | > 100 µM (inactive) | 97.3 µM (inactive) | > 100 µM (inactive) |
| O=C1CSC(c2cccc([N+](=O)[O-])c2)N1c1ccc(-c2ccc(-n3c(-c4ccccc4)nc4ccccc4c3=O)cc2)cc1 (stereo not given) | > 100 µM (inactive) | 64.7 µM (inactive) | 29.1 µM (inactive) | > 100 µM (inactive) | 30 µM (inactive) | 38.4 µM (inactive) | 48.6 µM (inactive) | 33.4 µM (inactive) | 18.5 µM (inactive) | 17.3 µM (inactive) | 17.2 µM (inactive) | > 100 µM (inactive) | 19.7 µM (inactive) | 28.8 µM (inactive) | 40 µM (inactive) | 35.3 µM (inactive) | 83.2 µM (inactive) | > 100 µM (inactive) | 25.2 µM (inactive) | – |
| O=c1[nH]c2c(c(=O)[nH]1)SSC2 | 16.6 µM (inactive) | 25.7 µM (inactive) | 13.8 µM (inactive) | 18.9 µM (inactive) | 0.838 µM (active) | 13.8 µM (inactive) | 2.75 µM (inactive) | 19.6 µM (inactive) | 11.8 µM (inactive) | 17.4 µM (inactive) | 1.3 µM (inactive) | 16 µM (inactive) | 0.275 µM (active) | 3.03 µM (inactive) | 7.19 µM (inactive) | 22.3 µM (inactive) | 4.99 µM (inactive) | 21.4 µM (inactive) | 17.3 µM (inactive) | – |
| Nc1cc2nc(O)c(O)nc2cc1N | > 100 µM (inactive) | > 100 µM (inactive) | > 100 µM (inactive) | > 100 µM (inactive) | > 100 µM (inactive) | > 100 µM (inactive) | > 100 µM (inactive) | > 100 µM (inactive) | > 100 µM (inactive) | > 100 µM (inactive) | > 100 µM (inactive) | > 100 µM (inactive) | > 100 µM (inactive) | > 100 µM (inactive) | > 100 µM (inactive) | > 100 µM (inactive) | > 100 µM (inactive) | > 100 µM (inactive) | > 100 µM (inactive) | – |
| CCOC(=O)C1(C(=O)OCC)CN(CC)CN(c2ccccc2)C1 | 19.2 µM (inactive) | > 100 µM (inactive) | 34.8 µM (inactive) | 17.8 µM (inactive) | 18.2 µM (inactive) | 30 µM (inactive) | 37.1 µM (inactive) | 17.8 µM (inactive) | 28 µM (inactive) | 18.5 µM (inactive) | 18.3 µM (inactive) | 19 µM (inactive) | 21 µM (inactive) | 26.5 µM (inactive) | 30.6 µM (inactive) | 19.6 µM (inactive) | 17.2 µM (inactive) | > 100 µM (inactive) | 25.1 µM (inactive) | – |
| C=CCCC1CCCCNC1=S (stereo not given) | > 10 µM (inactive) | > 10 µM (inactive) | > 10 µM (inactive) | > 10 µM (inactive) | > 10 µM (inactive) | > 10 µM (inactive) | > 10 µM (inactive) | > 10 µM (inactive) | > 10 µM (inactive) | > 10 µM (inactive) | > 10 µM (inactive) | > 10 µM (inactive) | > 10 µM (inactive) | > 10 µM (inactive) | > 10 µM (inactive) | > 10 µM (inactive) | > 10 µM (inactive) | > 10 µM (inactive) | > 10 µM (inactive) | – |
| CCCc1nc(NC#N)nc(C(=O)Nc2ccccc2)c1CC | > 100 µM (inactive) | > 100 µM (inactive) | > 100 µM (inactive) | > 100 µM (inactive) | > 100 µM (inactive) | – | > 100 µM (inactive) | > 100 µM (inactive) | > 100 µM (inactive) | – | > 100 µM (inactive) | > 100 µM (inactive) | – | > 100 µM (inactive) | > 100 µM (inactive) | > 100 µM (inactive) | > 100 µM (inactive) | – | – | > 100 µM (inactive) |
| CCOC1=C2N=C(Cc3ccc(F)cc3)NC2C(=O)c2ccccc21 (stereo not given) | 45.4 µM (inactive) | 21.6 µM (inactive) | – | – | 11.6 µM (inactive) | – | – | 21.1 µM (inactive) | 4.69 µM (inactive) | – | 17.5 µM (inactive) | 32.6 µM (inactive) | – | 22.1 µM (inactive) | – | 66.7 µM (inactive) | 7.91 µM (inactive) | 38.2 µM (inactive) | – | 40.3 µM (inactive) |
| C=CCNC1=C2C[C@@H](C)C[C@H](OC)[C@H](O)[C@@H](C)/C=C(\C)[C@H](OC(N)=O)[C@@H](OC)/C=C\C=C(/C)C(=O)NC(=CC1=O)C2=O [TANESPIMYCIN] | 0.177 µM (active) | 5.07 µM (inactive) | 0.0259 µM (active) | 1.29 µM (inactive) | 0.0731 µM (active) | 0.0569 µM (active) | 0.0308 µM (active) | 0.0113 µM (active) | 0.428 µM (active) | 0.0137 µM (active) | 0.527 µM (active) | 0.0881 µM (active) | 0.0158 µM (active) | 0.0326 µM (active) | 0.279 µM (active) | 0.0331 µM (active) | 0.0532 µM (active) | 0.0262 µM (active) | 4.39 µM (inactive) | – |

Source: ChEMBL document CHEMBL1201862, “PubChem BioAssay data set” (2004)
